According to patent publication US11116757B2 (priority 2015, dated 2021):
“Also recorded” adds a separate entry of the source.

Legend:
[1] = tested on: HCC95 cancer cells; test: Cullin neddylation in cancer cells (cell lysis and western blot); type: cell-based
Procedure: Cell pellets harvested from a 6 well dish were resuspended in 30-40 μL of lysis buffer (50 mM Tris, 150 mM NaCl, 0.5% NP-40, 0.1% SDS, 6.5 M Urea, 2 mM 1,10-orthophenanthroline, 1× Halt Protease and Phosphatase inhibitor cocktail (ThermoFisher), 0.25 kU Universal Nuclease (ThermoFisher), pH 7.5). Cell pellet suspensions were incubated on ice for 25 minutes with occasional mixing by pipetting up and down. Lysates were cleared by centrifugation at 13 K rpm for 20 minutes and the supernatant was removed as total cell lysate sample. Protein concentration of the cell lysate was determined by BCA assay (Pierce) using BSA as a control. Cell lysates were diluted into 2×SDS-PAGE sample buffer such that 25 μg of total protein was loaded per well. […] Primary antibodies were prepared in blocking buffer and incubated with membranes overnight at 4° C. with rocking. Membranes were extensively washed in 1×TBS, 0.1% Tween-20. Secondary antibodies were prepared in blocking buffer according to the manufactures recommendations and incubated with membranes for 1 hour at room temperature. After extensive washing the membranes were developed with SuperSignal West Pico Chemiluminescent substrate (ThermoFisher) and developed by film exposure (HyBlot CL, Denville scientific).

[2] = tested on: U-2 OS cells; test: Electron microscopy of compound treated cells; type: cell-based
[3] = tested on: HCC95 cells; test: Soft agar anchorage independent growth assay; type: cell-based; settings: 10 μM
[4] = Seven day spermatogenesis study; type: in vivo; settings: for Weight: oral gavage, B.I.D.; for Motility / Sperm Count / Viability (%): oral gavage B.I.D.
[5] = preliminary experiment
[6] = in vivo; settings: for concentration at 3 day / concentration at 7 day / concentration at 24.4 h / concentration at […] / concentration at 1 h: male; for concentration at 3 day: Day 3; for concentration at 7 day: Day 7
[7] = Plasma Concentration (μM), 50 mg/kg
[8] = Plasma Concentration (μM), 100 mg/kg
[9] = Plasma Concentration, Repeat Dose (0 and 7.5 hr)
[10] = Plasma Concentration, Single Dose (0 hr)
[11] = Testis Concentration (μM), 50 mg/kg
[12] = Testis Concentration (μM), 100 mg/kg
[13] = Testis Concentration, Repeat Dose (0 and 7.5 hr)
[14] = Testis Concentration, Single Dose (0 hr)

CCCCN1CCC(N(Cc2ccccc2)C(=O)Nc2ccc(Cl)c(Cl)c2)CC1 [A7]
levels of neddylated Cullins / cullin neddylation [1]: reduce the levels of neddylated Cullins; also recorded: selectively inhibit cullin neddylation
vacuolar structures by electron microscopy [2]: presence of large vacuolar structures
anchorage independent growth [3]: inhibit the anchorage independent growth of HCC95 cells
Weight ([4]; 50 mpk): 146.3 ± 27.7 mg
Weight ([4]; 100 mpk): 150.1 ± 18.9 mg
Motility ([4]; animal 50 mpk-1): Stationary
Sperm Count ([4]; animal 50 mpk-1): Low
Viability (%) ([4]; animal 50 mpk-1): <20%
Motility ([4]; animal 50 mpk-2): Stationary
Sperm Count ([4]; animal 50 mpk-2): Low
Viability (%) ([4]; animal 50 mpk-2): 0%
Motility ([4]; animal 50 mpk-3): Good, erratic
Sperm Count ([4]; animal 50 mpk-3): Normal
Viability (%) ([4]; animal 50 mpk-3): >50%
Motility ([4]; animal 100 mpk-1): No movement
Sperm Count ([4]; animal 100 mpk-1): Low
Viability (%) ([4]; animal 100 mpk-1): <10%
Motility ([4]; animal 100 mpk-2): Erratic
Sperm Count ([4]; animal 100 mpk-2): Low
Viability (%) ([4]; animal 100 mpk-2): <5%
Motility ([4]; animal 100 mpk-3): Limited
Sperm Count ([4]; animal 100 mpk-3): Low
Viability (%) ([4]; animal 100 mpk-3): <10%
maximum serum concentration [5]: 1.5 to 3 µM
half-life [6]: 4 to 5 h
concentration at 3 day [6, 7]: 2.7 ± 2.4 µM
concentration at 7 day [6, 7]: 1.7 ± 1.2 µM
concentration at 3 day [6, 8]: 2.4 ± 1.2 µM
concentration at 7 day [6, 8]: 1.4 ± 0.6 µM
concentration at 24.4 h [6, 9]: 0.62 ± 0.16 µM
concentration at […] [6, 9]: 4.8 ± 1.3 µM
concentration at 1 h [6, 10]: 3.7 ± 0.95 µM
concentration at 24.4 h [6, 10]: 0.47 ± 0.32 µM
concentration at 3 day [6, 11]: 11.6 ± 3.4 µM
concentration at 7 day [6, 11]: 8.25 ± 4.1 µM
concentration at 3 day [6, 12]: 25.9 ± 11.1 µM
concentration at 7 day [6, 12]: 31.2 ± 12.8 µM
concentration at 24.4 h [6, 13]: 6.2 ± 5.3 µM
concentration at […] [6, 13]: 16.7 ± 3.1 µM
concentration at 1 h [6, 14]: 2.1 ± 0.74 µM
concentration at 24.4 h [6, 14]: 4.4 ± 3.3 µM
